Marks after values point to notes of the source that are not given here. One block for each compound: values may come before it.
Tests used:
[1] = tested on: Aβ production in SNC cells (CHO APPSw); experiment: SNC dual cell assay, secreted Aβ1-x ELISA; details: Cricetulus griseus; for IC50: read-out: IC50 for inhibition of Aβ production in the SNC assay; for EC50: read-out: SNC Aβ EC50
[2] = tested on: Notch signaling in SNC cells (rat NotchΔE, CBF-Luciferase); experiment: SNC dual cell assay, Notch signaling luciferase reporter; details: for APP selectivity (cellular, SNC assay): text of Discussion; for EC50: Rattus norvegicus, read-out: SNC Notch Signaling EC50
[3] = target: T1, gamma-secretase complex (from CHO S1 cells) (Homo sapiens, UniProt P49768); experiment: Competitive displacement of biotinylated active site isostere (PS1/Nicastrin Western blot); format: binding
T1 construct: expressed in transfected cells; host or cells: CHO S1 cells

[4] = tested on: brain Aβ in PDAPP mice; experiment: Acute reduction of brain Aβ in PDAPP mice; format: in vivo, mouse; details: for reduction of brain Aβ1-x: 3 h
Protocol: (§1) Water and food were available ad libitum. […] Control animals were dosed with vehicle.
Figure 4 Acute reduction of brain Aβ by ELN318463 in PDAPP (a) and FVB mice (b). The mice were dosed orally with vehicle, or ELN318463 at 30 mg/kg or 100 mg/kg and sacrificed 3 h post treatment. Brain Aβ1-x in PDAPP (a), or Aβx-40 in FVB (b) was quantified by ELISA following extraction in guanidine buffer as described in methods. ** denotes P < 0.01, *** denotes P < 0.001 by Mann-Whitney in A, and two-tailed Students t-test in (b). TEXT PRINTED IN THE PICTURE: (A) no label printed: Aβ reduction: 37% (30[mpk]); Aβ reduction: 48% (100[mpk]) | (B) no label printed: Aβ reduction: 18% (30[mpk]); Aβ reduction: 18% (100[mpk])

[5] = tested on: brain Aβx-40 in FVB mice; experiment: Acute reduction of brain Aβx-40 in wild-type FVB mice; format: in vivo, mouse
Protocol: as §1
Statistical significance was determined by ANOVA.

[6] = Oral bioavailability in rat; details: in vivo, read-out: oral bioavailability F
[7] = Compound levels in plasma and brain by LC-MS-MS; details: for concentration at 3 h: mouse
[8] = tested on: thymic Hes-1 mRNA (Notch signaling); experiment: Thymic Hes-1 mRNA after single dose in FVB mice (TaqMan RT-PCR); format: in vivo, mouse; details: three hours
Protocol: as §1

[9] = Metabolism (N-glucuronidation); details: precluded longer-term studies in mice (or other models)
[10] = tested on: FVB mice (Math1 mRNA, body and organ weight, neutrophils); details: seven days b.i.d.; LY411575 5 mg/kg/dose; ELN475516 up to 1,000 mg/kg/dose
[11] = tested on: brain Aβx-40 in FVB mice; experiment: Seven-day b.i.d. repeat dose study, brain Aβx-40; details: seven days; for reduction of brain Aβ: three hours post last dose
[12] = tested on: duodenum and ileum of FVB mice; experiment: Seven-day b.i.d. repeat dose study, small intestine histopathology (goblet cell hyperplasia); details: for goblet cells in ileum sections / goblet cell hyperplasia: seven days b.i.d.; for goblet cells in ileum sections: H&E and PAS stained sections; for goblet cell hyperplasia: LY411575 5 mg/kg duodenum and ileum, ELN475516 any dose, duodenum
[13] = tested on: PDAPP mouse; design: method as in earlier work; details: three and six months, doses which affected AD pathology; cited from earlier work
[14] = tested on: brain Aβ in Tg2576 mice; design: method as in PMID 19671883; details: cited from earlier work
[15] = tested on: APP metabolites in HEK293 cells stably expressing APPsw; experiment: APP metabolites by Western blot in inhibitor treated cells; details: approximately 1 X and 10 X ED50, overnight, cell extracts
[16] = single oral dose 30 mg/kg, three hours post dose
[17] = 15 mg/kg/dose b.i.d., 7 days, N = 5
[18] = 30 mg/kg/dose b.i.d., 7 days, N = 5
[19] = 100 mg/kg/dose b.i.d., 7 days, N = 5
[20] = 300 mg/kg/dose b.i.d., 7 days, N = 5
[21] = 600 mg/kg/dose b.i.d., 7 days, N = 5
[22] = 1,000 mg/kg/dose b.i.d., 7 days, N = 5
[23] = ileum, among all mice of the ELN475516 treated groups
[24] = 5 mg/kg/dose b.i.d., 7 days, goblet cell hyperplasia in affected animals

SMILES: NC(=O)[C@@H](CCC(F)(F)F)N(Cc1ccc(-c2ncon2)cc1F)S(=O)(=O)c1ccc(Cl)cc1 [BMS-708163]
IC50 [1]: 1.13 nM | APP selectivity (cellular, SNC assay) [2]: 57 X

displacement of biotinylated active site probe ([3]; in the absence of substrate): No displacement | bioavailability [6]: 30% | concentration at 3 h ([7]; PDAPP, brain, po, 30 mg/kg): 690 nM | concentration at 3 h ([7]; PDAPP, brain, po, 100 mg/kg): 1870 nM | concentration at 3 h ([7]; female, FVB/N, brain, po, 30 mg/kg): 754 nM | concentration at 3 h ([7]; female, FVB/N, brain, po, 100 mg/kg): 2700 nM | EC50 [2]: 2820 nM
SMILES: O=C1NCCCC[C@H]1N(Cc1ccc(Br)cc1)S(=O)(=O)c1ccc(Cl)cc1 [ELN318463, N-(4-Bromobenzyl)-4-chloro-N-((3R)-2-oxoazepan-3-yl)benzenesulfonamide]
reduction of Aβx-40 ([4]; 30 mg/kg oral): 20% | reduction of Aβx-40 ([4]; 100 mg/kg oral): 25% | reduction of brain Aβ1-x ([4]; single oral dose 30 mg/kg): 37% | reduction of brain Aβ1-x ([4]; single oral dose 100 mg/kg): 48% | reduction of brain Aβx-40 [5, 16]: 18% | reduction of brain Aβx-40 ([5]; single oral dose 100 mg/kg, 3 h post dose): 18% | EC50 [1]: 23.4 ± 8.6 nM | Cellular Selectivity (APP/Notch) ([2]; ratio of cellular Notch signaling and Aβ EC50): 120

SMILES: O=S(=O)(c1ccc(Cl)cc1)N1C2CCCC1c1cn[nH]c1C2 (centres unmarked) [ELN475516, 10-((4-Chlorophenyl)sulfonyl)-4,5,6,7,8,9-hexahydro-1H-4,8-epiminocycloocta(c)pyrazole]
reduction of cortical Aβ1-x ([4]; single oral dose 10 mg/kg, three hours): 31% | reduction of brain Aβ1-x ([4]; single oral dose 30 mg/kg): 45% | brain Aβ levels by 24 hours post dose ([5]; all treatment groups (30, 100, 300 mg/kg)): returning to baseline | reduction of brain Aβ ([5]; single oral dose 30 mg/kg, 10 hours post dose): 28% | reduction of brain Aβx-40 [5, 16]: 40% | reduction of brain Aβ ([5]; single oral dose 100 mg/kg, 10 hours post dose): 33% | reduction of brain Aβ ([5]; single oral dose 100 mg/kg, 14 hours post dose): 14% | reduction of brain Aβ ([5]; single oral dose 300 mg/kg, 10 hours post dose): 56% | reduction of brain Aβ ([5]; single oral dose 300 mg/kg, 14 hours post dose): 29% | reduction of brain Aβx-40 ([5]; single oral dose 300 mg/kg, three hours post dose): 71% | time of maximal reduction of brain Aβ post dose ([5]; single oral dose 30, 100, 300 mg/kg): three | thymic Hes-1 mRNA ([8]; single oral dose 300 mg/kg (highest dose tested)): statistically significant reduction | metabolic liability [9]: Limiting N-glucuronidation | Math1 mRNA levels in duodenum and ileum [10]: No effects | EC50 [1]: 8.73 ± 3.96 nM | terminal plasma compound levels ([7]; acute single dose study, highest dose tested (300 mg/kg), FVB mice): 12.3 µM | concentration at 3 h ([7]; female, FVB, in vivo, 15 mg/kg): 187 nM | concentration at 3 h ([7]; female, FVB, in vivo, 1000 mg/kg/dose): 12300 nM | reduction of brain Aβ ([11]; 15 mg/kg/dose b.i.d. oral): 33% | maximal effect, reduction of brain Aβ ([11]; >100 mg/kg b.i.d. oral): 74% | EC50 [2]: 719 ± 225 nM | Duodenum # animals affected [12, 17]: 0 | Ileum # animals affected [12, 17]: 0 | Duodenum # animals affected [12, 18]: 0 | Ileum # animals affected [12, 18]: 4 | Ileum Mean severity score ([12]; 30 mg/kg/dose b.i.d., 7 days, affected animals): 0.5 | Duodenum # animals affected [12, 19]: 0 | Ileum # animals affected [12, 19]: 2 | Ileum Mean severity score ([12]; 100 mg/kg/dose b.i.d., 7 days, affected animals): 1.25 | Duodenum # animals affected [12, 20]: 0 | Ileum # animals affected [12, 20]: 0 | Duodenum # animals affected [12, 21]: 0 | Ileum # animals affected [12, 21]: 2 | Ileum Mean severity score ([12]; 600 mg/kg/dose b.i.d., 7 days, affected animals): 0.5 | Duodenum # animals affected [12, 22]: 0 | Ileum # animals affected [12, 22]: 1 | Ileum Mean severity score ([12]; 1,000 mg/kg/dose b.i.d., 7 days, affected animals): 0.5 | number of mice with a questionable increase in goblet cells [12, 23]: 8 | number of mice with no increase in goblet cells [12, 23]: 21 | goblet cells in ileum sections [12]: no apparent dose-related increase | goblet cell hyperplasia [12]: not observed

SMILES: O=S(=O)(c1ccc(C(F)(F)F)cc1)N1c2cc(F)c(F)cc2-c2[nH]ncc2[C@H]1C1CC1 [ELND006]
tolerability in chronic study [13]: well tolerated

SMILES: O=S(=O)(N[C@H](CO)C(C(F)(F)F)C(F)(F)F)c1ccc(Cl)s1 [GSI-953]
reduction of brain Aβx-40 [5, 16]: 33% | dose producing a similar magnitude effect (33% brain Aβ reduction) [14]: 5 mg/kg | IC50 [1]: 8 nM | APP selectivity (cellular, SNC assay) [2]: 45 X

SMILES: CC(C)C[C@H](NC(=O)[C@H](Cc1ccccc1)C[C@@H](O)[C@H](Cc1ccccc1)NC(=O)OC(C)(C)C)C(=O)N[C@@H](Cc1ccccc1)C(N)=O [L-685,458, tert-Butyl (2S,3R,5R)-6-((S)-1-((S)-1-amino-1-oxo-3-phenylpropan-2-ylamino)-4-methyl-1-oxopentan-2-ylamino)-5-benzyl-3-hydroxy-6-oxo-1-phenylhexan-2-ylcarbamate]
captured gamma-secretase complex competed ([3]; co-incubation with 10 μM, 50 nM biotinylated probe, preliminary experiments): > 90% | concentration for 50% displacement of biotinylated active site isostere probe, above IC50 in the gammaAPP assay ([3]; no added substrate): approximately three | EC50 [1]: 13.2 ± 4.5 nM | EC50 [2]: 184 ± 145 nM | effect on α-CTF and β-CTF of APP [15]: stabilize both α-CTF and β-CTF in a dose-dependent manner

SMILES: C[C@H](NC(=O)[C@@H](O)c1cc(F)cc(F)c1)C(=O)N[C@@H]1C(=O)N(C)c2ccccc2-c2ccccc21 [LY411575, (S)-2-((S)-2-(3,5-Difluorophenyl)-2-hydroxyacetamido)-N-((S)-5-methyl-6-oxo-6,7-dihydro-5H-dibenzo(b,d)azepin-7-yl)propanamide, reference compound]
reduction of brain Aβx-40 ([5]; single oral dose 10 mg/kg, three hours post dose): 74% | reduction of thymic Hes-1 mRNA ([8]; single oral dose 10 mg/kg): 60% | Math1 mRNA levels in duodenum and ileum [10]: robust elevation | EC50 [1]: 0.116 ± 0.011 nM | reduction of brain Aβ ([11]; 5 mg/kg b.i.d. oral): 83% | EC50 [2]: 1.8 ± 1.35 nM | Ileum # animals affected ([12]; 5 mg/kg/dose b.i.d., 7 days, N = 5): 5 | Duodenum # animals affected ([12]; 5 mg/kg/dose b.i.d., 7 days, N = 5 (tissue lost from one animal)): 4* | Duodenum Mean severity score [12, 24]: 2 | Ileum Mean severity score [12, 24]: 3 | goblet cells in ileum sections [12]: moderate increase in goblet cells | goblet cell hyperplasia [12]: readily apparent

Reference: paper PMC3031881, “Amyloid precursor protein selective gamma-secretase inhibitors for treatment of Alzheimer's disease” (Alzheimer's Research & Therapy, 2010)
